In patent publication US20230382925A1, “MODULATORS OF CYSTIC FIBROSIS TRANSMEMBRANE CONDUCTANCE REGULATOR” (VERTEX PHARMACEUTICALS INCORPORATED, priority 2020, published 2023):
Read-outs that look alike come from different tables or passages of the source.

Target: CFTR (Homo sapiens, UniProt P13569)
Experiment: Membrane Potential Dye, Enteroid Assay B
Assay type: cell-based
Procedure, shortened: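 Human intestinal enteroid cells exposed to compound 18-24 h at 37 °C, then loaded with methyl oxonol membrane-potential dye plus CaCC blockers. Chloride transport triggered in chloride-free buffer with 10 μM forskolin, 100 μM IBMX, 300 nM Compound III; fluorescence read 15 min, expressed as % of triple-corrector/potentiator combination control.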

[1] = Table 10, read-out: Ent. B EC50

Sequence of CFTR (P13569 with tags, fused parts or gaps DEL508-508): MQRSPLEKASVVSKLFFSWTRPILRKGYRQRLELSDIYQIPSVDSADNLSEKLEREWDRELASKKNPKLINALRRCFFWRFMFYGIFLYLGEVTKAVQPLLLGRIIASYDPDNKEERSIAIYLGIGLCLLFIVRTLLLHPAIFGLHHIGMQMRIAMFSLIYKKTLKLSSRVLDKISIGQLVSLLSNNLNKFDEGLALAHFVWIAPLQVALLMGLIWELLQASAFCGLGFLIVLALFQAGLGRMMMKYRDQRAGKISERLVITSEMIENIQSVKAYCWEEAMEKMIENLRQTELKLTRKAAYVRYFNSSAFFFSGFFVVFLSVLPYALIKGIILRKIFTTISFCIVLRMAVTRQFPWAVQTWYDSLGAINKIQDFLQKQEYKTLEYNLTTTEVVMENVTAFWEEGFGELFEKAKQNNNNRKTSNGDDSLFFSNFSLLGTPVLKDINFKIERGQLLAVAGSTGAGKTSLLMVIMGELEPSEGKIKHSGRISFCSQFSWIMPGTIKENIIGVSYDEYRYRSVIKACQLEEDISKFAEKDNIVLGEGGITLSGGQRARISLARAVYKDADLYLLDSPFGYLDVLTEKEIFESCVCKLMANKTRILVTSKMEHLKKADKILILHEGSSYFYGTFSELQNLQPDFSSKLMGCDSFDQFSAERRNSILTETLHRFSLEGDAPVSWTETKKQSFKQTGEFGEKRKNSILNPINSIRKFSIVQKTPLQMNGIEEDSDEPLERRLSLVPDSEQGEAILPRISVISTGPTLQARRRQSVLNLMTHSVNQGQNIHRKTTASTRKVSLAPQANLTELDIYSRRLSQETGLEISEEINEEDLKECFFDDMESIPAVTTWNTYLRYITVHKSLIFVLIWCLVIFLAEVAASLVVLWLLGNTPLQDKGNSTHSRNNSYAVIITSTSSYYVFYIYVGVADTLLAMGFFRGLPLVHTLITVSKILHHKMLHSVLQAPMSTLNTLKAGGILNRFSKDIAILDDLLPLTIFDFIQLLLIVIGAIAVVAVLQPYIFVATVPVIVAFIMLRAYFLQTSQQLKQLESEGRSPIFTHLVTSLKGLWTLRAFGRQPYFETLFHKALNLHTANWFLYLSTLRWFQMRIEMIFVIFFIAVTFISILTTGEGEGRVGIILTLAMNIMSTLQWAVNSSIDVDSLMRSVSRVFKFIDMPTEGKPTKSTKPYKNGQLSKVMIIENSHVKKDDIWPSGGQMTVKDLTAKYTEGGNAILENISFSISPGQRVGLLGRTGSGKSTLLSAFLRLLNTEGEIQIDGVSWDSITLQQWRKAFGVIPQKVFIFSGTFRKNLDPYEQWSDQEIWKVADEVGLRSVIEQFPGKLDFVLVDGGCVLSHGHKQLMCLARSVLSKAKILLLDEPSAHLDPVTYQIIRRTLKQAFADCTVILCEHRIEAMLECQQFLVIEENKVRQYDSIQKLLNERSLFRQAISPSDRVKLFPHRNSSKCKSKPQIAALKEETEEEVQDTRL

Row | SMILES | Ent. B Max Activity (%) (Table 9) | EC50 (Table 9, read-out: Ent. B EC50) [nM] | also measured
1 | [H][C@]1(N2C(=O)c3cccc(c3)S(=O)(=O)Nc3nc(cc(-c4c(C)cccc4C)n3)OC[C@H]2CC(C)C)C[C@@]2(C[C@H](C(C)(C)O)C2)C1 (stereo in doubt) [Compound 413] |  |  | Ent. B Max Activity (%) (Table 10): +++ (+++ is >60%); EC50 [1]: < 1000 nM
2 | [H][C@]1(N2C(=O)c3cccc(c3)S(=O)(=O)Nc3nc(cc(-c4c(C)cccc4C)n3)OC[C@H]2CC2(C(F)(F)F)CC2)C[C@@]2(C[C@H](N(C)C)C2)C1 (stereo partly shown) [Compound 297] |  |  | Ent. B Max Activity (%): +++ (+++ is >60%); EC50 (read-out: Ent. B EC50): < 1000 nM
3 | COCCN1CC(N2C(=O)c3cccc(c3)S(=O)(=O)Nc3nc(cc(-c4c(C)cccc4C)n3)OC[C@H]2CC(C)C)CC1(C)C (stereo in doubt) [Compound 277] | +++ (+++ is >60%) | 1000 to 3000 | 
4 | CC(=O)N[C@H]1C[C@@]2(C1)C[C@H](N1C(=O)c3cccc(c3)S(=O)(=O)Nc3nc(cc(-c4c(C)cccc4C)n3)OC[C@H]1CC1(C(F)(F)F)CC1)C2 (stereo partly drawn) [Compound 85, N-((2R,4r,6R)-6-((R)-1^6-(2,6-Dimethylphenyl)-3,3-dioxido-5-oxo-7-((1-(trifluoromethyl)cyclopropyl)methyl)-9-oxa-3-thia-2,6-diaza-1(2,4)-pyrimidina-4(1,3)-benzenacyclononaphane-6-yl)spiro[3.3]heptan-2-yl)acetamide] | +++ (+++ is >60%) | < 1000 | 
5 | COCCN1CCC(N2C(=O)c3cccc(c3)S(=O)(=O)Nc3nc(cc(-c4c(C)cccc4C)n3)OC[C@H]2CC(C)C)C1 (stereo in doubt) [Compound 294] |  |  | Ent. B Max Activity (%): +++ (+++ is >60%); EC50 (read-out: Ent. B EC50): < 1000 nM
6 | Cc1cccc(C)c1-c1cc2nc(n1)NS(=O)(=O)c1cccc(c1)C(=O)N(C1CC(C(=O)N3CCOCC3)C1)[C@H](CC(C)C)CO2 (stereo partly shown) [Compound 307] |  |  | Ent. B Max Activity (%): +++ (+++ is >60%); EC50 (read-out: Ent. B EC50): < 1000 nM
7 | Cc1cccc(C)c1-c1cc2nc(n1)NS(=O)(=O)c1cccc(c1)C(=O)N(C1CC(NC(=O)OC(C)C)C1)[C@H](CC1(C(F)(F)F)CC1)CO2 (single isomer, unassigned) [Compound 59] | +++ (+++ is >60%) | < 1000 | 
8 | COCCN1CCC2(CC1)CC(N1C(=O)c3cccc(c3)S(=O)(=O)Nc3nc(cc(-c4c(C)cccc4C)n3)OC[C@H]1CC(C)(C)C(F)(F)F)C2 [Compound 190, (11R)-6-(2,6-dimethylphenyl)-12-[7-(2-methoxyethyl)-7-azaspiro[3.5]nonan-2-yl]-11-(3,3,3-trifluoro-2,2-dimethylpropyl)-9-oxa-2λ^6-thia-3,5,12,19-tetraazatricyclo[12.3.1.14,8]nonadeca-1(17),4(19),5,7,14(18),15-hexaene-2,2,13-trione] | +++ (+++ is >60%) | < 1000 | 
9 | Cc1cccc(C)c1-c1cc2nc(n1)NS(=O)(=O)c1cccc(c1)C(=O)N([C@H]1C[C@@H](N3CCC(OCC4CC4)CC3)C1)[C@H](CC(C)C)CO2 [Compound 386] | +++ (+++ is >60%) | < 1000 | 
10 | Cc1cccc(C)c1-c1cc2nc(n1)NS(=O)(=O)c1cccc(c1)C(=O)N(C1CC3(COC(=O)N3)C1)[C@H](CC(C)C)CO2 (stereo partly shown) [Compound 255] |  |  | Ent. B Max Activity (%) (Table 10): ++ (++ is 30-60%); EC50 [1]: < 1000 nM
11 | CC(C)C[C@@H]1COc2cc(-c3c(F)cccc3C(F)(F)F)nc(n2)NS(=O)(=O)c2cccc(c2)C(=O)N1C1CC2(CC2)C1 [Compound 202] |  |  | Ent. B Max Activity (%) (Table 10): ++ (++ is 30-60%); EC50 [1]: < 1000 nM
12 | Cc1cccc(C)c1-c1cc2nc(n1)NS(=O)(=O)c1cccc(c1)C(=O)N(C1CC3(CCN(CCOC(C)C)CC3)C1)[C@H](CC(C)(C)C(F)(F)F)CO2 [Compound 189, (11R)-6-(2,6-dimethylphenyl)-12-{7-[2-(propan-2-yloxy)ethyl]-7-azaspiro[3.5]nonan-2-yl}-11-(3,3,3-trifluoro-2,2-dimethylpropyl)-9-oxa-2λ^6-thia-3,5,12,19-tetraazatricyclo[12.3.1.14,8]nonadeca-1(17),4(19),5,7,14(18),15-hexaene-2,2,13-trione] | +++ (+++ is >60%) | < 1000 | 
13 | Cc1cccc(C)c1-c1cc2nc(n1)NS(=O)(=O)c1cccc(c1)C(=O)N([C@H]1C[C@@H](NC(=O)OC(C)(C)C)C1)[C@H](CC1(C(F)(F)F)CC1)CO2 (single isomer, unassigned) [Compound 54] | +++ (+++ is >60%) | < 1000 | 
14 | COC(=O)N[C@H]1CC2(C1)C[C@H](N1C(=O)c3cccc(c3)S(=O)(=O)Nc3nc(cc(-c4c(C)cccc4C)n3)OC[C@H]1CC1(C(F)(F)F)CC1)C2 (stereo partly shown) [Compound 274] | +++ (+++ is >60%) | < 1000 | 
15 | Cc1cccc(C)c1-c1cc2nc(n1)NS(=O)(=O)c1cccc(c1)C(=O)N([C@H]1C[C@@H](N3C[C@@H](C)O[C@@H](C)C3)C1)[C@H](CC(C)C)CO2 [Compound 380] | +++ (+++ is >60%) | < 1000 | 
16 | CNC(=O)O[C@H]1C[C@@H](N2C(=O)c3cccc(c3)S(=O)(=O)Nc3nc(cc(-c4c(C)cccc4C)n3)OC[C@H]2CC(C)C)C1 (stereo in doubt) [Compound 361] |  |  | Ent. B Max Activity (%) (Table 10): ++ (++ is 30-60%); EC50 [1]: < 1000 nM
17 | Cc1cccc(C)c1-c1cc2nc(n1)NS(=O)(=O)c1cccc(n1)C(=O)N(C1CC3(CCNCC3)C1)[C@H](CC(C)C)CO2 [Compound 392] |  |  | Ent. B Max Activity (%): +++ (+++ is >60%); EC50 (read-out: Ent. B EC50): 1000 to 3000 nM
18 | Cc1cccc(C)c1-c1cc2nc(n1)NS(=O)(=O)c1cccc(c1)C(=O)N(C1CC(N[C@H]3CC[C@H](O)CC3)C1)[C@H](CC(C)C)CO2 (stereo in doubt) [Compound 372] | +++ (+++ is >60%) | < 1000 | 
19 | CCOCCN1CCC2(CC1)CC(N1C(=O)c3cccc(c3)S(=O)(=O)Nc3nc(cc(-c4c(C)cccc4C)n3)OC[C@H]1CC(C)C)C2 [Compound 310] |  |  | Ent. B Max Activity (%): +++ (+++ is >60%); EC50 (read-out: Ent. B EC50): < 1000 nM
20 | Cc1cccc(C)c1-c1cc2nc(n1)NS(=O)(=O)c1cccc(c1)C(=O)N(C1CC3(CCN3C(=O)CO)C1)[C@H](CC(C)(C)C)CO2 (stereo partly drawn) [Compound 146, (11R)-6-(2,6-Dimethylphenyl)-11-(2,2-dimethylpropyl)-12-[1-(2-hydroxyacetyl)-1-azaspiro[3.3]heptan-6-yl]-2,2-dioxo-9-oxa-2λ^6-thia-3,5,12,19-tetrazatricyclo[12.3.1.14,8]nonadeca-1(18),4(19),5,7,14,16-hexaen-13-one] |  |  | Ent. B Max Activity (%) (Table 10): +++ (+++ is >60%); EC50 [1]: < 1000 nM
21 | CCN(C(=O)OC)C1CC(N2C(=O)c3cccc(c3)S(=O)(=O)Nc3nc(cc(-c4c(C)cccc4C)n3)OC[C@H]2CC(C)(C)C)C1 (single isomer, unassigned) [Compound 237] |  |  | Ent. B Max Activity (%) (Table 10): ++ (++ is 30-60%); EC50 [1]: < 1000 nM
22 | CC(=O)NC1CC(N2C(=O)c3cccc(c3)S(=O)(=O)Nc3nc(cc(-c4c(C)cccc4C)n3)OC[C@H]2CC(C)(C)C)C1 (single isomer, unassigned) [Compound 448] | +++ (+++ is >60%) | < 1000 | 
23 | Cc1cccc(C)c1-c1cc2nc(n1)NS(=O)(=O)c1cccc(c1)C(=O)N([C@H]1CCN(C)C1)[C@H](CC(C)C)CO2 (stereo in doubt) [Compound 296] |  |  | Ent. B Max Activity (%): +++ (+++ is >60%); EC50 (read-out: Ent. B EC50): 3000 to 30000 nM
24 | Cc1cccc(C)c1-c1cc2nc(n1)NS(=O)(=O)c1cccc(c1)C(=O)N([C@H]1C[C@@]3(C[C@H](N(C)C(=O)OC(C)C)C3)C1)[C@H](CC1(C(F)(F)F)CC1)CO2 (stereo partly shown) [Compound 272] | +++ (+++ is >60%) | < 1000 | 
25 | CC(=O)NC1CC(N2C(=O)c3cccc(c3)S(=O)(=O)Nc3nc(cc(-c4c(C)cccc4C)n3)OC[C@H]2CC(C)(C)C)C1 (stereo in doubt) [Compound 449] | +++ (+++ is >60%) | < 1000 | 
26 | [H][C@]1(N2C(=O)c3cccc(c3)S(=O)(=O)Nc3nc(cc(-c4c(C)cccc4C)n3)OC[C@H]2CC(C)(C)C)C[C@@]2(C[C@H](C(=O)N(C)C)C2)C1 (single isomer, unassigned) [Compound 115] |  |  | Ent. B Max Activity (%) (Table 10): +++ (+++ is >60%); EC50 [1]: < 1000 nM

Further lines, with some results ahead:

Row | Ent. B Max Activity (%) (Table 9) | EC50 (Table 9, read-out: Ent. B EC50) [nM] | SMILES | also measured
27 | +++ (+++ is >60%) | < 1000 | Cc1cccc(C)c1-c1cc2nc(n1)NS(=O)(=O)c1cccc(c1)C(=O)N([C@H]1C[C@@H](CN(C)C)C1)[C@H](CC(C)C)CO2 (single isomer, unassigned) [Compound 105] | 
28 | +++ (+++ is >60%) | < 1000 | COC(=O)NC1CC2(C1)CC(N1C(=O)c3cccc(c3)S(=O)(=O)Nc3nc(cc(-c4c(C)cccc4C)n3)OC[C@H]1CC(C)(C)C(F)(F)F)C2 (single isomer, unassigned) [Compound 76] | 
29 | +++ (+++ is >60%) | < 1000 | COC(=O)NC1CC2(C1)CC(N1C(=O)c3cccc(c3)S(=O)(=O)Nc3nc(cc(-c4c(C)cccc4C)n3)OC[C@H]1CC(C)(C)C)C2 (single isomer, unassigned) [Compound 91] | 
30 | +++ (+++ is >60%) | < 1000 | Cc1cccc(C)c1-c1cc2nc(n1)NS(=O)(=O)c1cccc(c1)C(=O)N(C1CC(OC(F)(F)F)C1)[C@H](CC(C)C)CO2 (stereo in doubt) [Compound 213] | 
31 | +++ (+++ is >60%) | < 1000 | [H][C@]1(N2C(=O)c3cccc(c3)S(=O)(=O)Nc3nc(cc(-c4c(C)cccc4C)n3)OC[C@H]2CC(C)C)C[C@@]2(C[C@H](N(C)CCOC)C2)C1 (stereo partly shown) [Compound 285] | 
32 | +++ (+++ is >60%) | < 1000 | Cc1cccc(C)c1-c1cc2nc(n1)NS(=O)(=O)c1cccc(c1)C(=O)N([C@H]1C[C@@H](N(C)CCCO)C1)[C@H](CC(C)C)CO2 [Compound 67, (11R)-6-(2,6-Dimethylphenyl)-12-[3-[3-hydroxypropyl(methyl)amino]cyclobutyl]-11-isobutyl-2,2-dioxo-9-oxa-2λ^6-thia-3,5,12,19-tetrazatricyclo[12.3.1.14,8]nonadeca-1(18),4(19),5,7,14,16-hexaen-13-one] | 
